Source: patent US11535643B2, “Macrolides with modified desosamine sugars and uses thereof” (President and Fellows of Harvard College, priority 2015, dated 2022)
≈ marks a conversion by molar mass, not a printed value.

Key:
Assay type in all cases: cell-based
S. aureus = assay: Broth dilution MIC determination (CLSI) against S. aureus strains
Procedure, shortened: (§1)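 CLSI broth dilution MIC; panel of unique strains incl. multidrug-resistant ones, focus on macrolide-resistance mechanisms; azithromycin, solithromycin as controls.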

S. pneumoniae = assay: Broth dilution MIC determination (CLSI) against S. pneumoniae strains
Procedure, shortened: as §1

S. pyogenes = assay: Broth dilution MIC determination (CLSI) against S. pyogenes strains
Procedure, shortened: as §1

E. faecalis = assay: Broth dilution MIC determination (CLSI) against E. faecalis strains
Procedure, shortened: as §1

E. coli = assay: Broth dilution MIC determination (CLSI) against E. coli strains
Procedure, shortened: as §1

A. baumannii = assay: Broth dilution MIC determination (CLSI) against A. baumannii strains
Procedure, shortened: as §1

K. pneumoniae = assay: Broth dilution MIC determination (CLSI) against K. pneumoniae strains
Procedure, shortened: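 CLSI broth-dilution MICs across a panel including multidrug- and macrolide-resistant strains, with azithromycin and solithromycin as control compounds.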

P. aeruginosa = assay: Broth dilution MIC determination (CLSI) against P. aeruginosa strains
Procedure, shortened: as §1

H. influenzae = assay: Broth dilution MIC determination (CLSI) against H. influenzae strains
From the text: Minimum inhibitory concentrations (MICs) for macrolides described herein have been determined for unique strains of S. aureus, S. pneumoniae, S. pyogenes, E. faecalis, E. coli, A. baumannii, K. pneumoniae, P. aeruginosa, and H. influenzae, including several multidrug-resistant strains, with a special focus on macrolide resistant mechanisms. Azithromycin and solithromycin were included as control compounds. CLSI standard procedures for broth dilution MIC determination were used. Data for exemplary compounds described herein is shown in Tables M1-M7 and in Tables N1-N4.

Structure (SMILES): CCC1OC(=O)C(C)C(=O)C(C)C(OC2OC(Cn3cc(-c4cccc(N)n4)nn3)CC(N(C)C)C2O)C(C)(OC)CC(C)CNC(C)C2N(CCCCn3cc(-c4cccc(N)c4)nn3)C(=O)OC12C (stereo not shown) [FSM-22372]
- MIC S. aureus ATCC29213 (S. aureus; ATCC29213): >32 µg/mL
- MIC S. aureus MRSA: USA100 (S. aureus; MRSA: USA100): >32 µg/mL
- MIC S. aureus MRSA: USA300 (S. aureus; MRSA: USA300): >32 µg/mL
- MIC S. aureus USA600, GISA (S. aureus; USA600, GISA): >32 µg/mL
- MIC S. aureus erm A genotype (S. aureus; erm A genotype): >32 µg/mL
- MIC S. pneumoniae ATCC49619 (S. pneumoniae; ATCC49619): <0.03125 µg/mL
- MIC S. pneumoniae erm B + mef A genotype (S. pneumoniae; erm B + mef A genotype): >32 µg/mL
- MIC S. pneumoniae erm B + tet(M, O) genotype (S. pneumoniae; erm B + tet(M, O) genotype): <0.03125 µg/mL
- MIC S. pyogenes ATCC19615 (S. pyogenes; ATCC19615): <0.03125 µg/mL
- MIC S. pyogenes macrolide-resistant (S. pyogenes; macrolide-resistant): 8 µg/mL (≈ 8.1 µM)
- MIC E. faecalis ATCC29212 (E. faecalis; ATCC29212): 16 µg/mL (≈ 16.2 µM)
- MIC E. faecalis Vancomycin-resistant (E. faecalis; Vancomycin-resistant): >32 µg/mL
- MIC E. coli ATCC25922 (E. coli; ATCC25922): >32 µg/mL
- MIC E. coli CTX-M-14 (E. coli; CTX-M-14): >32 µg/mL
- MIC E. coli NDM-1 (E. coli; NDM-1): >32 µg/mL
- MIC E. coli TEM-1 (E. coli; TEM-1): >32 µg/mL
- MIC A. baumannii ATCC19606 (A. baumannii; ATCC19606): >32 µg/mL
- MIC A. baumannii IMP-4 (A. baumannii; IMP-4): >32 µg/mL
- MIC A. baumannii chromosomal class C (A. baumannii; chromosomal class C): >32 µg/mL
- MIC A. baumannii imipenem-resistant (A. baumannii; imipenem-resistant): >32 µg/mL
- MIC K. pneumoniae ATCC10031 (K. pneumoniae; ATCC10031): >32 µg/mL
- MIC K. pneumoniae KPC-2 (K. pneumoniae; KPC-2): >32 µg/mL
- MIC K. pneumoniae SHV-12 (K. pneumoniae; SHV-12): >32 µg/mL
- MIC K. pneumoniae TEM-10 (K. pneumoniae; TEM-10): >32 µg/mL
- MIC P. aeruginosa ATCC27853 (P. aeruginosa; ATCC27853): >32 µg/mL
- MIC P. aeruginosa HPA101-1477 (P. aeruginosa; HPA101-1477): >32 µg/mL
- MIC H. influenzae ATCC49247 (H. influenzae; ATCC49247): 16 µg/mL (≈ 16.2 µM)
- MIC H. influenzae erythro > 4, azithro 1 (H. influenzae; erythro > 4, azithro 1): 16 µg/mL (≈ 16.2 µM)

Structure (SMILES): CCC1OC(=O)C(C)C(=O)C(C)C(OC2OC(C)CC(N(C)Cc3cccnc3)C2O)C(C)(OC)CC(C)CNC(C)C2N(CCCCn3cc(-c4cccc(N)c4)nn3)C(=O)OC12C (stereo not shown) [FSM-120385]
- MIC (S. aureus; S. aureus (MRSA) GISA USA600, strain MP-619 UNT-120 (Table N2)): >64 µg/mL
- MIC (S. aureus; S. aureus (MRSA) ST-228 cErm, strain MP-513 (Table N2)): >64 µg/mL
- MIC (S. aureus; S. aureus (MRSA) USA100, strain MP-618 UNT-096 (Table N2)): >64 µg/mL
- MIC (S. aureus; S. aureus (MRSA) USA300, strain MP-549 (Table N2)): 16 µg/mL (≈ 17.7 µM)
- MIC (S. aureus; S. aureus (MRSA) ermA phenotype, strain MP-620 UNT-146 (Table N2)): >64 µg/mL
- MIC (S. aureus; S. aureus ATCC29213, strain MP-12 (Table N2)): 4 µg/mL (≈ 4.42 µM)
- MIC (S. aureus; S. aureus ATCCBAA-977, strain MP-17 (Table N2)): 4 µg/mL (≈ 4.42 µM)
- MIC (S. pneumoniae; S. pneumoniae ATCC49619, strain MP-21 (Table N2)): 0.06 µg/mL (≈ 0.0663 µM)
- MIC (S. pneumoniae; S. pneumoniae mefA, strain MP-626 UNT-038 (Table N2)): 0.125 µg/mL (≈ 0.138 µM)
- MIC (S. pneumoniae; S. pneumoniae mefA, strain MP-627 UNT-039 (Table N2)): 0.25 µg/mL (≈ 0.276 µM)
- MIC (S. pyogenes; S. pyogenes ATCC19615, strain MP-19 (Table N2)): <0.03 µg/mL
- MIC (S. pyogenes; S. pyogenes mac resistant, strain MP-625 UNT-014 (Table N2)): 1 µg/mL (≈ 1.1 µM)
- MIC (E. faecalis; E. faecalis ATCC29212, strain MP-24 (Table N2)): 1 µg/mL (≈ 1.1 µM)
- MIC (E. faecalis; E. faecalis van resistant, strain UNT-039 (Table N2)): >64 µg/mL
- MIC (E. coli; E. coli ATCC25922, strain MP-4 (Table N2)): 64 µg/mL (≈ 70.7 µM)
- MIC (E. coli; E. coli ATCC25922:tolC, strain MP-9 (Table N2)): 4 µg/mL (≈ 4.42 µM)
- MIC (E. coli; E. coli clinical, strain MP541 (Table N2)): 64 µg/mL (≈ 70.7 µM)
- MIC (E. coli; E. coli clinical-cErm, strain MP532 (Table N2)): >64 µg/mL
- MIC (A. baumannii; A. baumannii ATCC19606, strain MP-15 (Table N2)): 16 µg/mL (≈ 17.7 µM)
- MIC (A. baumannii; A. baumannii clinical, strain MP576 (Table N2)): >64 µg/mL
- MIC (A. baumannii; A. baumannii clinical, strain MP577 (Table N2)): 64 µg/mL (≈ 70.7 µM)
- MIC (K. pneumoniae; K pneumomae ATCC10031, strain MP-14 (Table N2)): 8 µg/mL (≈ 8.84 µM)
- MIC (K. pneumoniae; K. pneumoniae clinical, strain MP546 (Table N2)): >64 µg/mL
- MIC (K. pneumoniae; K. pneumoniae clinical, strain MP548 (Table N2)): >64 µg/mL
- MIC (P. aeruginosa; P. aeruginosa ATCC27853, strain MP-3 (Table N2)): >64 µg/mL
- MIC (P. aeruginosa; P. aeruginosa PAO1, strain MP-7 (Table N2)): >64 µg/mL
- MIC (P. aeruginosa; P. aeruginosa PAO1:mex, strain MP-8 (Table N2)): 32 µg/mL (≈ 35.4 µM)
